This note sets out measurements from US20080300298A1, “Honokiol Derivates For the Treatment of Proliferative Disorders” (priority 2005, published 2008).

One assay has as its system JNK in CH12.LX cells. The experiment in a line: JNK phosphorylation (Western blotting). The class given is cell-based, mouse. To be noted: CH12.LX cells transfected with hCD40-LMP1. The source says: The cells were pelleted by centrifugation, lysed and analyzed by SDS PAGE and Western blotting. Peroxidase-labeled antibodies were visualized on Western blots using a chemilluminescent detection reagent to assay for JNK phosphorylation.
Background: Immunoblotting shows a protein as a band on a membrane.

A further assay concerns PARP in KBM-5 cells. The experiment in a line: PARP cleavage assay. The class given is cell-based, human. The settings on record: KBM-5, TNF 1 nM with honokiol (25 mM printed). On the procedure:
(D) depicts that honokiol enhances TNF-induced cell death.
PARP cleavage assay. For detection of cleavage products of PARP, whole-cell extracts were prepared by subjecting honokiol-treated cells to lysis in lysis buffer (20 mM Tris, pH 7.4; 250 mM NaCl; 2 mM EDTA, pH 8.0; 0.1% TritonX-100; 0.01 mg/ml aprotinin; 0.005 mg/ml leupeptin; 0.4 mM PMSF; and 4 mM NaVO4). Lysates were spun at 14000 rpm for 10 min to remove insoluble material, resolved by 10% SDS PAGE, and probed with PARP antibodies.
By using caspase-activated PARP cleavage, it was shown that the enhanced cytotoxicity was due to apoptosis. TNF-induced PARP cleavage was enhanced in the honokiol-treated cells (FIG. 26C).

A further assay relates to MM.1S cells. The experiment in a line: cells. In kind it is cell-based. The settings on record: Homo sapiens, MM1.S, read-out: percentage of nonviable cells by trypan blue exclusion. The protocol:
Assessment of HNK-induced cytotoxicity against patient MM cells: Cytotoxicity of HNK against fresh MM cells was determined as previously determined, see, for example, Mitsiades et al Cancer Cell. 2004; 5:221-230. Fresh MNCs separated from bone marrow samples derived from patients with MM were incubated with PE-conjugated anti-CD138 antibody and/or FITC-conjugated anti-CD38 antibody (BD Biosciences, San Diego, Calif.) for 30 minutes on ice and washed, followed by analysis using EPICS XL flow cytometer (Beckman Coulter, Hialeah, Fla.). A CD38^high fraction enriched for MM cells was determined in side and forward scatter panel in each case. The expression of CD138 on gated cells was also evaluated. After HNK-treatment for 48 h, cells were harvested and percentage of CD38^high cells with or without HNK-treatment was evaluated. […] Cells were stained with propidium iodide (PI; 50 μg/mL; Sigma, St Louis, Mo.), and cell cycle profile was determined by using the program M software on an EPICS XL flow cytometer (Beckman Coulter, Hialeah, Fla.). […] Fluorescence intensity of TUNEL and APO 2.7 staining was determined using on EPICS XL flow cytometer. Cytotoxicity was determined by trypan blue exclusion assay. […] Cell growth and induction of apoptosis were determined both by colorimetric assay and now cytometric detection of APO2.7 after 48 h treatment. […] DNA synthesis was measured by [^3H]-thymidine uptake. […]

The test system of assay [1] is phospholipase D in SVR cells. The experiment in a line: phospholipase D activity. In kind it is cell-based. To be noted: 0.5% and 10% serum. The source says: Honokiol analogs can stimulate tumor and endothelial cell apoptosis through inhibition of PLD activity. […] Treatment with […] causes downregulation of S6kinase phosphorylation in a time and dose dependent fashion, as well as downregulation of akt. Thus, honokiol mimics several of the activities of wild type tuberin.

Assay [2] concerns microvascular endothelial cells. The experiment in a line: endothelial proliferation with TRAIL antibody. In kind it is cell-based. The settings on record: 0, 1, 6 or 9 μg/ml, 48 h. On the procedure: 10^4/well microvascular endothelial cells were cultured in 24-well plates for 24 h. The next day, cells were washed by PBS and pretreated with 0.5 ml/well fresh MEC medium with 0, 1, 6, or 9 μg/ml honokiol for 30 min before addition of TRAIL or isotype control antibody (30 μg/well). Cells were incubated for 48 h after the addition of reagents and were counted with a Coulter Counter. The green bars represent endothelial cells treated with honokiol alone, the dark blue bars represent cells treated with honokiol and TRAIL antibody, and the light blue bars represent cells treated with honokiol and isotype control antibody. The differences in honokiol-treated endothelium in the presence or absence of TRAIL antibody are significant (p<0.05).

The structures appear in SMILES notation. Where two headings read alike, the source gives them in different places.

`C=CCc1ccc(O)c(-c2ccc(O)c(CC=C)c2)c1` [HNK, Honokiol]: in the assay on JNK in CH12.LX cells, the JNK phosphorylation entry is listed as “inhibited by honokiol in a dose dependent manner”. Besides, in the assay with PARP in KBM-5 cells, the “TNF-induced PARP cleavage” value is on record as “enhanced”. Moreover, the cytotoxicity at 10 µg/mL in the assay with MM.1S cells (24 h) stood at 30.7 ± 5.5%; in the assay with MM.1S cells, 27.6 ± 6.4%. Moreover, in assay [1], the “activity of phospholipase D” value was “inhibits the activity of phospholipase D in both 0.5% and 10% serum”. Moreover, the “inhibition of endothelial proliferation with or without TRAIL antibody” value in assay [2] is recorded as “TRAIL-dependent”.
